In paper PMC6901909, “Synergy Pattern of Short Cationic Antimicrobial Peptides Against Multidrug-Resistant Pseudomonas aeruginosa” (Frontiers in Microbiology, 2019):
Converted amounts (≈) assume the structure as drawn. Peptide text beside a SMILES is read from it.

Assays:
Experiment in all cases: microbe, parasite or virus in culture
Format in all cases: cell-based, Pseudomonas aeruginosa
MDR P. aeruginosa PA 919 = settings: MDR PA 919, 18 h
Experimental: (§1) We selected six different P. aeruginosa isolates that were described as MDR and had been isolated from clinical and municipal waste water ([Schwartz et al., 2006]). The minimal inhibitory concentration (MIC) was determined in a microdilution assay using Mueller-Hinton (MH) broth following a previously published protocol ([Wiegand et al., 2008]). Briefly, a twofold serial dilution of the antibiotics and peptides were prepared and added to a bacteria solution, resulting in 2–5 10^5 CFU/ml. The microtiter plates (polypropylene, Corning) were incubated for 18 h at 37°C and MICs were taken visually.

MDR P. aeruginosa PA253 = settings: MDR PA253, 18 h
Experimental: as §1

P. aeruginosa PA01-wt = settings: -wt, 18 h
Experimental: as §1

MDR P. aeruginosa PA 910 = settings: MDR PA 910, 18 h
Experimental: as §1

## CC[C@H](C)[C@H](NC(=O)[C@H](CCCNC(=N)N)NC(=O)[C@H](CC(C)C)NC(=O)[C@H](CCCNC(=N)N)NC(=O)[C@@H](N)C(C)C)C(=O)N[C@@H](CCCNC(=N)N)C(=O)N[C@H](C(=O)N[C@@H](C)C(=O)N[C@H](C(=O)N[C@H](C(=O)N[C@@H](CCCNC(=N)N)C(=O)N[C@@H](C)C(N)=O)[C@@H](C)CC)C(C)C)C(C)C [Bac034] (H-VRLRIRVAVIRA-NH2)
MDR P. aeruginosa PA 919
  MIC against MDR isolates of PA, PA919: 32 µM
MDR P. aeruginosa PA253
  MIC against MDR isolates of PA, PA253: 64 µM
P. aeruginosa PA01-wt
  MIC against PA01 wt: 32 µM (≈ 45.5 µg/mL)

## CC[C@H](C)[C@H](N)C(=O)N[C@@H](CC(C)C)C(=O)N[C@@H](CCCCN)C(=O)N[C@@H](Cc1c[nH]c2ccccc12)C(=O)N[C@@H](CCCCN)C(=O)N[C@@H](CCCCN)C(=O)NCC(=O)N[C@@H](Cc1c[nH]c2ccccc12)C(=O)N[C@@H](Cc1c[nH]c2ccccc12)C(=O)N[C@@H](CCCCN)C(=O)N[C@@H](Cc1c[nH]c2ccccc12)C(=O)N[C@@H](Cc1ccccc1)C(=O)N[C@@H](CCCNC(=N)N)C(N)=O [Indopt 8] (H-ILKWKKGWWKWFR-NH2)
MDR P. aeruginosa PA 919
  MIC against MDR isolates of PA, PA919: 16 µM
MDR P. aeruginosa PA253
  MIC against MDR isolates of PA, PA253: 8 µM
P. aeruginosa PA01-wt
  MIC against PA01 wt: 4 µM (≈ 7.45 µg/mL)

## CC[C@H](C)[C@H](N)C(=O)N[C@@H](CC(C)C)C(=O)N[C@@H](CCCCN)C(=O)N[C@@H](Cc1c[nH]c2ccccc12)C(=O)N[C@@H](CCCCN)C(=O)N[C@@H](CCCNC(=N)N)C(=O)N[C@@H](CCCCN)C(=O)N[C@@H](Cc1c[nH]c2ccccc12)C(=O)N[C@@H](Cc1c[nH]c2ccccc12)C(=O)N[C@@H](CCCCN)C(=O)N[C@@H](Cc1c[nH]c2ccccc12)C(=O)N[C@@H](CCCNC(=N)N)C(=O)N[C@@H](CCCNC(=N)N)C(N)=O [Indopt 9] (H-ILKWKRKWWKWRR-NH2)
MDR P. aeruginosa PA 919
  MIC against MDR isolates of PA, PA919: 16 µM
MDR P. aeruginosa PA253
  MIC against MDR isolates of PA, PA253: 4 µM
P. aeruginosa PA01-wt
  MIC against PA01 wt: 1 (1) μM

## CC[C@H](C)[C@H](N)C(=O)N[C@@H](CC(C)C)C(=O)N[C@@H](CCCCN)C(=O)N[C@@H](Cc1c[nH]c2ccccc12)C(=O)N[C@@H](CCCCN)C(=O)N[C@H](C(=O)N[C@@H](CCCCN)C(=O)N[C@@H](Cc1c[nH]c2ccccc12)C(=O)N[C@@H](Cc1c[nH]c2ccccc12)C(=O)N[C@@H](CCCCN)C(=O)N[C@@H](Cc1c[nH]c2ccccc12)C(=O)N[C@@H](Cc1ccccc1)C(=O)N[C@@H](CCCNC(=N)N)C(N)=O)[C@@H](C)O [Indopt 11] (H-ILKWKTKWWKWFR-NH2)
MDR P. aeruginosa PA 919
  MIC against MDR isolates of PA, PA919: 16 µM
MDR P. aeruginosa PA253
  MIC against MDR isolates of PA, PA253: 4 µM
P. aeruginosa PA01-wt
  MIC against PA01 wt: 2 µM (≈ 3.81 µg/mL)

## CC[C@H](C)[C@H](NC(=O)[C@H](CCCCN)NC(=O)[C@H](CCCNC(=N)N)NC(=O)[C@H](Cc1c[nH]c2ccccc12)NC(=O)[C@H](Cc1c[nH]c2ccccc12)NC(=O)[C@@H](N)CCCNC(=N)N)C(=O)N[C@@H](Cc1c[nH]c2ccccc12)C(=O)N[C@@H](CCCCN)C(=O)N[C@@H](Cc1c[nH]c2ccccc12)C(N)=O [LOP1] (H-RWWRKIWKW-NH2)
MDR P. aeruginosa PA 919
  MIC against MDR isolates of PA, PA919: 2 to 4 µM
MDR P. aeruginosa PA253
  MIC against MDR isolates of PA, PA253: 8 µM
P. aeruginosa PA01-wt
  MIC against PA01 wt: 2 µM (≈ 2.89 µg/mL)

## CC[C@H](C)[C@H](NC(=O)[C@H](CCCNC(=N)N)NC(=O)[C@H](C)NC(=O)CNC(=O)[C@@H](N)CCCNC(=N)N)C(=O)N[C@H](C(=O)N[C@H](C(=O)N[C@H](C(=O)N[C@@H](CCCNC(=N)N)C(=O)N[C@H](C(=O)N[C@@H](C)C(=O)N[C@@H](CCCNC(=N)N)C(N)=O)C(C)C)[C@@H](C)CC)C(C)C)C(C)C [Peptide G2] (H-RGARIVVIRVAR-NH2)
MDR P. aeruginosa PA 919
  MIC against MDR isolates of PA, PA919: 16 µM
MDR P. aeruginosa PA253
  MIC against MDR isolates of PA, PA253: 32 µM
P. aeruginosa PA01-wt
  MIC against PA01 wt: 32 µM (≈ 43.7 µg/mL)

## CC[C@H](C)[C@H](NC(=O)[C@H](CCCNC(=N)N)NC(=O)[C@H](C)NC(=O)[C@H](CCCNC(=N)N)NC(=O)[C@@H](N)CCCNC(=N)N)C(=O)N[C@H](C(=O)N[C@H](C(=O)N[C@H](C(=O)N[C@@H](CCCNC(=N)N)C(=O)N[C@H](C(=O)N[C@@H](C)C(=O)N[C@@H](CCCNC(=N)N)C(N)=O)C(C)C)[C@@H](C)CC)C(C)C)C(C)C [Peptide R2] (H-RRARIVVIRVAR-NH2)
MDR P. aeruginosa PA 919
  MIC against MDR isolates of PA, PA919: 16 µM
MDR P. aeruginosa PA253
  MIC against MDR isolates of PA, PA253: 32 µM
P. aeruginosa PA01-wt
  MIC against PA01 wt: 32 µM (≈ 46.8 µg/mL)

## CC[C@H](C)[C@H](NC(=O)[C@H](CCCNC(=N)N)NC(=O)[C@H](Cc1c[nH]c2ccccc12)NC(=O)[C@H](CC(C)C)NC(=O)[C@@H](N)CCCNC(=N)N)C(=O)N[C@H](C(=O)N[C@H](C(=O)N[C@H](C(=O)N[C@@H](CCCNC(=N)N)C(=O)N[C@H](C(=O)N[C@@H](C)C(=O)N[C@@H](CCCNC(=N)N)C(N)=O)C(C)C)[C@@H](C)CC)C(C)C)C(C)C [Peptide W3] (H-RLWRIVVIRVAR-NH2)
MDR P. aeruginosa PA 910
  MIC against PA910 in μM (peptides, Table 4): 32 µM (≈ 49.2 µg/mL)

## CC[C@H](C)[C@H](NC(=O)[C@H](CCCNC(=N)N)NC(=O)[C@H](Cc1c[nH]c2ccccc12)NC(=O)[C@H](CCCNC(=N)N)NC(=O)[C@@H](N)C(C)C)C(=O)N[C@@H](CCCNC(=N)N)C(=O)N[C@H](C(=O)N[C@@H](C)C(=O)N[C@H](C(=O)N[C@H](C(=O)N[C@@H](CCCNC(=N)N)C(=O)N[C@@H](C)C(N)=O)[C@@H](C)CC)C(C)C)C(C)C [S-W3] (H-VRWRIRVAVIRA-NH2)
MDR P. aeruginosa PA 910
  MIC against PA910 in μM (peptides, Table 4): 16 µM (≈ 23.9 µg/mL)

## CC[C@H](C)[C@H](NC(=O)[C@H](CCCNC(=N)N)NC(=O)[C@H](Cc1c[nH]c2ccccc12)NC(=O)[C@H](CCCNC(=N)N)NC(=O)[C@@H](N)CCCNC(=N)N)C(=O)N[C@H](C(=O)N[C@H](C(=O)N[C@H](C(=O)N[C@@H](CCCNC(=N)N)C(=O)N[C@H](C(=O)N[C@@H](CCCNC(=N)N)C(=O)N[C@@H](CCCNC(=N)N)C(N)=O)C(C)C)[C@@H](C)CC)C(C)C)C(C)C [Sub 3] (H-RRWRIVVIRVRR-NH2)
MDR P. aeruginosa PA 919
  MIC against MDR isolates of PA, PA919: 16 µM
MDR P. aeruginosa PA253
  MIC against MDR isolates of PA, PA253: 8 µM
P. aeruginosa PA01-wt
  MIC against PA01 wt: 8 µM (≈ 13.3 µg/mL)
